Measurements from US10894784B2, “Heteroarylbenzimidazole compounds” (BAYER PHARMA AKTIENGESELLSCHAFT, priority 2015, dated 2021).

Molecular target: TBK1 (Homo sapiens (Human), UniProt Q9UHD2)
Experiment: TBK1 low ATP kinase assay (in vitro assay 1)
Type: biochemical
Conditions: in vitro assay 1, read-out: TBK1 low ATP kinase assay IC50

Sequence of TBK1 (Q9UHD2 whole entry): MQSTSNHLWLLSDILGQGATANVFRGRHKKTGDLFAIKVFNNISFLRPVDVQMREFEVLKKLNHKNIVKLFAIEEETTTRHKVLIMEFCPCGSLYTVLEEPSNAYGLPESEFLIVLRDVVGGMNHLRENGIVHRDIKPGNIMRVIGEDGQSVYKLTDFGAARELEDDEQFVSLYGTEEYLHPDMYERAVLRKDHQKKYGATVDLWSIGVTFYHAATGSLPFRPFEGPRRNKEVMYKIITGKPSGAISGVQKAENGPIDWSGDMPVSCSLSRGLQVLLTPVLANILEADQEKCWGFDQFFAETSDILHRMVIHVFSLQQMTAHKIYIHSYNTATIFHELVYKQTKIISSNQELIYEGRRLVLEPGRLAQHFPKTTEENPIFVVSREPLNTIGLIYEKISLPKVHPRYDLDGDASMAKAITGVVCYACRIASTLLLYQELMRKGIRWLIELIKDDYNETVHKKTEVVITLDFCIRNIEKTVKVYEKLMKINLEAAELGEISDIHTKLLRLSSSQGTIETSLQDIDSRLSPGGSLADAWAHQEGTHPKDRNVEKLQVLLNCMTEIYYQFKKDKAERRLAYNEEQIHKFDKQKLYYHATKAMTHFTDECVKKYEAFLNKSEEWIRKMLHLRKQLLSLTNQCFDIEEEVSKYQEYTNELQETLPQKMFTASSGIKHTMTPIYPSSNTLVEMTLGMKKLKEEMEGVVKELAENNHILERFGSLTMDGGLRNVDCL

In order of rising IC50:
1. CC(c1ccnc(Nc2nc3ccc(-c4cnn(CC5CC5(F)F)c4)cc3[nH]2)c1)N1CCN(C(=O)C2CC2)CC1 (single isomer, unassigned) [Example 55.03.01, cyclopropyl{4-[(1R or 1S)-1-(2-{[6-(1-{[(1R or 1S)-2,2-difluorocyclopropyl]methyl}-1H-pyrazol-4-yl)-1H-benzimidazol-2-yl]amino}pyridin-4-yl)ethyl]piperazin-1-yl}methanone]  0.61 nM
2. CC(C)Oc1cncnc1-c1ccc2nc(Nc3cc(C(C)N4CCN(C(=O)C5CCC5)CC4)ccn3)[nH]c2c1 (single isomer, unassigned) [Example 36.04, cyclobutyl(4-{(1R or 1S)-1-[2-({6-[5-(propan-2-yloxy)pyrimidin-4-yl]-1H-benzimidazol-2-yl}amino)pyridin-4-yl]ethyl}piperazin-1-yl)methanone]  2.5 nM
3. CC(c1ccnc(Nc2nc3ccc(-c4cc(N5CCCC5)ncn4)cc3[nH]2)c1)N1CCN(C(=O)C(C)(C)O)CC1 (single isomer, unassigned) [Example 117.07, 2-hydroxy-2-methyl-1-(4-{(1R or 1S)-1-[2-({6-[6-(pyrrolidin-1-yl)pyrimidin-4-yl]-1H-benzimidazol-2-yl}amino)pyridin-4-yl]ethyl}piperazin-1-yl)propan-1-one]  2.7 nM
4. CC(c1ccnc(Nc2nc3ccc(-c4cnn(CC5CC5(F)F)c4)cc3[nH]2)c1)N1CCN(C(=O)OC(C)(C)C)CC1 (single isomer, unassigned) [Example 55.01.02, tert-butyl 4-[(1R or 1S)-1-(2-{[6-(1-{[(1R or 1S)-2,2-difluorocyclopropyl]methyl}-1H-pyrazol-4-yl)-1H-benzimidazol-2-yl]amino}pyridin-4-yl)ethyl]piperazine-1-carboxylate]  4.8 nM
5. CC(C)N(C)c1cc(-c2ccc3nc(Nc4cc(CN5CCN(C(=O)CC(F)(F)F)CC5)ccn4)[nH]c3c2)ncn1 [Example 153.02, 3,3,3-trifluoro-1-[4-({2-[(6-{6-[methyl(propan-2-yl)amino]pyrimidin-4-yl}-1H-benzimidazol-2-yl)amino]pyridin-4-yl}methyl)piperazin-1-yl]propan-1-one]  5.9 nM
6. CCc1cc(-c2ccc3nc(Nc4cc(CN5CCN(C(=O)C6CC6)CC5)ccn4)[nH]c3c2)ncn1 [Example 91.03, cyclopropyl{4-[(2-{[6-(6-ethylpyrimidin-4-yl)-1H-benzimidazol-2-yl]amino}pyridin-4-yl)methyl]piperazin-1-yl}methanone]  13 nM
7. CC(C)Oc1cc(-c2ccc3nc(Nc4cc(CN5CCN(C(=O)CC(F)(F)F)CC5)ccn4)[nH]c3c2)ncn1 [Example 160.02, 3,3,3-trifluoro-1-(4-{[2-({6-[6-(propan-2-yloxy)pyrimidin-4-yl]-1H-benzimidazol-2-yl}amino)pyridin-4-yl]methyl}piperazin-1-yl)propan-1-one]  13 nM
8. COc1cc(-c2ccc3nc(Nc4cc(CN5CCN(C(=O)C6CC6)CC5)ccn4)[nH]c3c2)ccn1 [Example 02.02, cyclopropyl{4-[(2-{[6-(2-methoxypyridin-4-yl)-1H-benzimidazol-2-yl]amino}pyridin-4-yl)methyl]piperazin-1-yl}methanone]  30.7 nM
9. Cc1noc(-c2ccc3nc(Nc4cc(CN5CCN(C(=O)CC(F)(F)F)CC5(C)C)ccn4)[nH]c3c2)n1 [Example 16.04.02, 1-{3,3-dimethyl-4-[(2-{[6-(3-methyl-1,2,4-oxadiazol-5-yl)-1H-benzimidazol-2-yl]amino}pyridin-4-yl)methyl]piperazin-1-yl}-3,3,3-trifluoropropan-1-one]  496 nM
10. CC(c1ccnc(Nc2nc3ccc(-c4cc(C(F)(F)F)nn4C)cc3[nH]2)c1)N1CCN(C(=O)CC(F)(F)F)CC1 (single isomer, unassigned) [Example 88.02, 3,3,3-trifluoro-1-(4-{(1R or 1S)-1-[2-({6-[1-methyl-3-(trifluoromethyl)-1H-pyrazol-5-yl]-1H-benzimidazol-2-yl}amino)pyridin-4-yl]ethyl}piperazin-1-yl)propan-1-one]  860 nM
